Measured values: patent US9765075B2, “Substituted bridged urea analogs as sirtuin modulators” (GLAXOSMITHKLINE LLC, priority 2013, dated 2017)
Positions count from the first letter of the chain named.

Key:
Assay in all cases: SIRT1 activation dose-response, OAcADPr assay with Ac-p53(W5) substrate
Format in all cases: biochemical
full-length hSIRT1 I227A = target: T1, full-length hSIRT1 I227A (Homo sapiens, UniProt Q96EB6, I227A); details: for EC50: hSIRT1 I227A, activation dose-response, Ac-p53(W5) substrate
T1 construct: The following point mutants of full-length hSIRT1 were generated; His6 (C); made in house
T1 sequence (Q96EB6 1-747 I227A): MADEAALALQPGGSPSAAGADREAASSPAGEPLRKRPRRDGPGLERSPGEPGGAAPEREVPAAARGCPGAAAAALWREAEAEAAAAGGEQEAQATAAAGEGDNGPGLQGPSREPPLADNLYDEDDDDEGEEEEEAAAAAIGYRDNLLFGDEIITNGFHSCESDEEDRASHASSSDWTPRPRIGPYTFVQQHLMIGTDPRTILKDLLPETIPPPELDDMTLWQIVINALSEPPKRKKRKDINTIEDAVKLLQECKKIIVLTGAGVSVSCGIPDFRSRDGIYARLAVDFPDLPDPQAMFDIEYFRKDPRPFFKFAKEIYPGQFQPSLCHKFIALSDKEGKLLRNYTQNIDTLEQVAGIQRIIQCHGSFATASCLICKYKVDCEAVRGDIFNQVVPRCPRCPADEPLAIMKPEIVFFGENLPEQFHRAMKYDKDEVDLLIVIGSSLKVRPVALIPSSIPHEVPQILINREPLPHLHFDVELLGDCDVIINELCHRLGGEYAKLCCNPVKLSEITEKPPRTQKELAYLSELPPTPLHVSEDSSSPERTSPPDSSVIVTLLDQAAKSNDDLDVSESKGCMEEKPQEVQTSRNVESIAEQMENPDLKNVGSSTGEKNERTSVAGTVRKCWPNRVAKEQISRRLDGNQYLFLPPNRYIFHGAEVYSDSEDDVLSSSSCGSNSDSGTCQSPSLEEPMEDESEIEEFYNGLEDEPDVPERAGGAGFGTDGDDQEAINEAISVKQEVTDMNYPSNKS
Protocol: (§1) SIRT1 activation and inhibition assays were run in reaction buffer with 0.05% BSA at 25° C. and analyzed using the OAcADPr assay. Enzyme and compound were pre-incubated for 20 minutes before addition of substrates. […] The dose-dependence of five compounds was tested and the fold-activation data were described by Eq. 1
(§2) [formula] where vx/v0 is the ratio of the reaction rate in the presence (vx) versus absence (v0) of activator (X), RVmax is the relative velocity at infinite activator concentration, EC50 is the concentration of activator required to produce one-half RVmax and b is the minimum value of vx/v0.

full-length hSIRT1 E230K = target: T2, full-length hSIRT1 E230K (Homo sapiens, UniProt Q96EB6, E230K); details: for EC50: hSIRT1 E230K, activation dose-response, Ac-p53(W5) substrate
T2 construct: His6 (C); made in house
T2 sequence (Q96EB6 1-747 E230K): T1 sequence (Q96EB6 1-747 I227A) with A227I, E230K
Protocol: as §1, §2

full-length hSIRT1 I223A = target: T3, full-length hSIRT1 I223A (Homo sapiens, UniProt Q96EB6, I223A); details: for EC50: hSIRT1 I223A, activation dose-response, Ac-p53(W5) substrate
T3 construct: The following point mutants of full-length hSIRT1 were generated; His6 (C); made in house
T3 sequence (Q96EB6 1-747 I223A): T1 sequence (Q96EB6 1-747 I227A) with I223A, A227I
Protocol: as §1, §2

O=C(Nc1ccccn1)N1c2nc(-c3cccc(C(F)(F)F)c3)ccc2N2CC[C@H]1C2 [Example 7]
EC50 fold shift (mutant EC50/wild-type EC50) (full-length hSIRT1 I227A): 3.07 | RVmax fold shift = (wild-type RVmax−1)/(mutant RVmax−1) (full-length hSIRT1 I227A): 0.85 | EC50 (full-length hSIRT1 I227A): 6.76 µM | EC50 fold shift (mutant EC50/wild-type EC50) (full-length hSIRT1 E230K): 1.46 | RVmax fold shift = (wild-type RVmax−1)/(mutant RVmax−1) (full-length hSIRT1 E230K): 8.67 | EC50 (full-length hSIRT1 E230K): 3.21 µM | EC50 fold shift (mutant EC50/wild-type EC50) (full-length hSIRT1 I223A): 2.51 | RVmax fold shift = (wild-type RVmax−1)/(mutant RVmax−1) (full-length hSIRT1 I223A): 6.90 | EC50 (full-length hSIRT1 I223A): 5.51 µM

Cc1cnc2c(NC(=O)N3c4nc(-c5cccc(C(F)(F)F)c5)ccc4N4CC[C@H]3C4)cccc2n1 [Example 8]
EC50 fold shift (mutant EC50/wild-type EC50) (full-length hSIRT1 I227A): 6.21 | RVmax fold shift = (wild-type RVmax−1)/(mutant RVmax−1) (full-length hSIRT1 I227A): 1.06 | EC50 (full-length hSIRT1 I227A): 2.98 µM | EC50 fold shift (mutant EC50/wild-type EC50) (full-length hSIRT1 E230K): 1.46 | RVmax fold shift = (wild-type RVmax−1)/(mutant RVmax−1) (full-length hSIRT1 E230K): 5.36 | EC50 (full-length hSIRT1 E230K): 0.7 µM | EC50 fold shift (mutant EC50/wild-type EC50) (full-length hSIRT1 I223A): 4.91 | RVmax fold shift = (wild-type RVmax−1)/(mutant RVmax−1) (full-length hSIRT1 I223A): 0.97 | EC50 (full-length hSIRT1 I223A): 2.36 µM
